From patent US20090117154A1, “SYNTHETIC POLYVALENT CARBOHYDRATES AS COMPONENTS OF MICROBICIDES” (priority 2005, published 2009)

Target: T1, DC-SIGN (Homo sapiens, UniProt Q9NNX6)
T1 construct: made in house
Assay: Inhibition of the binding of soluble DC-SIGN to immobilized HIV-1 Bal gp120 (plate ELISA)
Conditions: soluble DC-SIGN/mAb complex, gp120 captured on D7324 plate; preliminary assay; FIG. 3
Method: Preliminary assays were conducted on the inhibition of the synthetic polyvalent compounds against the binding between HIV-1 gp120 and DC-SIGN. Specifically, plates were coated with 5 ug/mL D7324 anti-gp120 capture antibody, in 1×PBS O/N at RT. Blocking buffer was 5% BSA in 1×TBST+1 mM CaCL2, assay/dilution buffer was 2% BSA in 1×TBST+1 mM CaCL2 and wash buffer was 1×TBST+1 mM CaCL2 (4 washes, 200 uL per well). Gp120 (CHOK1, uQuant) was captured on the D7324 plate at saturation, 500 ng/mL in assay buffer for 2 hour at RT. sDC-SIGN supernatant (Nov. 6, 2004) was supplemented with 1 mM CaCL2 and pre-complexed with 3 ug/mL anti-DC-SIGN mAb (120507, Sigma) for 1 hour at RT. Mannose products were titered 1:2 in assay buffer (Starts 1:4 in column 2), sDC-SIGN/mAb complexes were added to the titered mannose at about 1:5 (155 uL mannose+45 uL sDC-SIGN/mAb) (no sDC-SIGN in column 12), sDC-SIGN/mAb complexes mixed with mannose compounds were allowed to bind to the Gp120 plate for 1 hour at RT. Any bound sDC-SIGN/mAb complexes were detected with goat anti-mouse-IgG-HRP (Axcell) 1:2000 in assay buffer, absorbed with 2% sheep serum.

T1 sequence (Q9NNX6 59-404): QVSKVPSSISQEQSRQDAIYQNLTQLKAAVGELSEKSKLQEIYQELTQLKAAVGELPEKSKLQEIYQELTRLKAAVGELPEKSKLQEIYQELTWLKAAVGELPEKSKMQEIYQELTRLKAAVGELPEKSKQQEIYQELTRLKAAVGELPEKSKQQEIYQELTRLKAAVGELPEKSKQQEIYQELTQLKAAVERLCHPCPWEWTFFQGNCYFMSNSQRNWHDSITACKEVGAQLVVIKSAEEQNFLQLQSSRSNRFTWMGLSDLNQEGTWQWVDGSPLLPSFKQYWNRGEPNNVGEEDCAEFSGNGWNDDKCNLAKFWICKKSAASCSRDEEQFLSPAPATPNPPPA

CC(=O)N[C@@H]1[C@@H](O)[C@H](O[C@@H]2O[C@H](CO)[C@@H](O[C@@H]3O[C@H](CO[C@H]4O[C@H](CO[C@H]5O[C@H](CO)[C@@H](O)[C@H](O)[C@@H]5O[C@H]5O[C@H](CO)[C@@H](O)[C@H](O)[C@@H]5O)[C@@H](O)[C@H](O[C@H]5O[C@H](CO)[C@@H](O)[C@H](O)[C@@H]5O[C@H]5O[C@H](CO)[C@@H](O)[C@H](O)[C@@H]5O)[C@@H]4O)[C@@H](O)[C@H](O[C@H]4O[C@H](CO)[C@@H](O)[C@H](O)[C@@H]4O[C@H]4O[C@H](CO)[C@@H](O)[C@H](O)[C@@H]4O[C@H]4O[C@H](CO)[C@@H](O)[C@H](O)[C@@H]4O)[C@@H]3O)[C@H](O)[C@H]2NC(C)=O)[C@@H](CO)O[C@H]1NC(=O)C[C@H](N)C(=O)O [Man9, Man9GlcNAc2Asn]
inhibition of the binding of soluble DC-SIGN to immobilized gp120 (in words): much better than the disaccharide and monosaccharide in inhibition
